Holding throughout (experiment): NCI tumour cell line growth inhibition, 48 h
For test [1], the system named is KM12 colon.
The test system of test [2] is NCI-H23 lung.
For test [3], the system named is SK-MEL-5 melanoma.
For test [4], the system named is 786-0 renal.
Test [5] has as its system ACHN renal.
In test [6] the test system is NCI-H226 lung.
Test [7] deals with SNB-75 CNS.
For test [8], the system named is SF-268 CNS.
Test [9] deals with MOLT-4 leukemia.
Test [10] relates to A549 NSCLC.
Test [11] has as its system A498 renal.
For test [12], the system named is OVCAR-4 ovarian.
Test [13] deals with HCT-15 colon.
The subject of test [14] is HCT-116 colon.
The test system of test [15] is UO-31 renal.
In test [16] the test system is HCC-2998 colon.
Test [17] relates to SK-MEL-2 melanoma.

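All cell lines were grown in 96-well plates and treated with compound for 48 hours. The concentration for 50% growth inhibition is given as GI50. TGI: total growth inhibition.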

As for `N#Cc1c2ccc([N+](=O)[O-])cc2c(=O)n2c1sc1ccc(C(F)(F)F)cc12`, the TGI in test [1], in test [2], in [3], in test [4], in [5] and in test [6] was above 100 µM in each case. For the same compound, the TGI in test [7], in test [8], in test [9], in test [10], in [11] and in [12] was above 100 µM throughout. In addition, the TGI in [13], in test [14] and in [15] was above 100 µM throughout.
`CCCCCCCC1(N=[N+]=[N-])C(=O)c2ccccc2N(C)C1=O` (stereo not given): the TGI in test [1], in [2], in [3], in [4], in test [5] and in test [6] was above 100 µM throughout. Besides, the TGI in [7], in test [8], in [9], in [10], in test [11] and in test [12] was above 100 µM each time. The TGI in test [13], in [14] and in [16] was above 100 µM in each case.
In the case of `O=C1C=CC2(O[C@H](c3ccccc3)[C@@H](c3ccccc3)O2)C(SC(=O)c2ccccc2)C1` (stereo not given in full), the TGI turned out to be 6.87 µM in test [1]; 3.82 µM in test [2]; 2.87 µM in [3]; 1.76 µM in test [4]; 3.01 µM in test [5]; 4.32 µM in [6]. For the same compound, the TGI is 5.34 µM in test [7]; 3.02 µM in test [8]; above 100 µM in test [9]; 17.4 µM in [10]; 20.6 µM in [11]; 5.13 µM in test [12]. The TGI turned out to be 2.2 µM in test [13], 1.53 µM in [14], 3.51 µM in [17] and 2.66 µM in test [15].
Regarding `C/C=C(C)/C=C/CC(C)CCC=C(C)C` (stereo not given), the TGI in test [1], in test [3], in test [4], in [5], in [6] and in test [7] was above 100 µM in each case. The TGI in [9], in test [10], in [11], in [12], in [13] and in [14] was above 100 µM in each case. Further, the TGI in [17] and in test [15] was above 100 µM throughout.
For the compound `COc1cc(O)cc(/C=C/c2ccc(O)cc2)c1`, the TGI is 93.7 µM in test [1]; 96.1 µM in test [2]; above 100 µM in test [3]; above 100 µM in test [4]; 31.2 µM in [5]; 63.1 µM in test [6]. Besides, the TGI in test [7] is above 100 µM; in [8], above 100 µM; in test [9], above 100 µM; in [10], above 100 µM; in test [11] it was 94.3 µM; in [12], above 100 µM. For the same compound, the TGI is 29.9 µM in test [13], above 100 µM in [14], above 100 µM in test [17] and above 100 µM in test [15].
`COc1cccc(-c2cc(=O)c3cc(OC)c(OC)cc3[nH]2)c1`: the TGI in [1] is above 100 µM; in test [2], above 100 µM; in test [4] it was above 100 µM; in [5], above 100 µM; in test [6] it was 79.8 µM; in test [7], above 100 µM. The TGI in [8], in test [9], in [10], in [13], in [14] and in [16] was above 100 µM each time. This compound also came in with a TGI in test [15] above 100 µM. Further, the figures for the GI50 in [6], in test [8] and in test [14] were 21.5 µM, 49.6 µM and 59.2 µM, respectively.
With `CCOC(=O)c1c(N)nn2c1cc1cccccc12`, the TGI in test [1] is 54.6 µM; in test [2], 69 µM; in test [3], 69 µM; in [4], above 100 µM; in [5], above 100 µM; in test [8] it was 68.2 µM. Moreover, the TGI is above 100 µM in test [9]; above 100 µM in test [10]; 84.9 µM in [11]; above 100 µM in test [12]; above 100 µM in test [13]; above 100 µM in test [14]. Further, the results for the TGI in test [16] and in [17] were above 100 µM and 45.1 µM, respectively.
With `Cc1cc(C)nc(NS(=O)(=O)c2ccc(Nc3nncc(=O)n3N)cc2)n1`, the TGI in test [1] was above 100 µM; in test [2] it was 28.6 µM; in test [3] it was 33.1 µM; in [4] it was 29.2 µM; in test [5] it was above 100 µM; in test [8], 39.7 µM. Besides, the TGI in test [9] is 48.6 µM; in test [10], above 100 µM; in test [11], above 100 µM; in test [12] it was 32.9 µM; in test [13], 28.8 µM; in test [14], 87.8 µM. In addition, the TGI was 80.7 µM in test [16], above 100 µM in test [17] and 33.9 µM in test [15].
As to `COc1c(C)c(C/C=C(\C)CCCCO[Si](C(C)C)(C(C)C)C(C)C)c(OC)c2ccccc12`, the TGI in test [1], in [2], in test [3], in test [4], in [5] and in test [7] was above 100 µM throughout. Further, the TGI in [8], in test [9], in test [10], in test [12], in [13] and in test [14] was above 100 µM throughout. The TGI in [17] and in test [15] was above 100 µM each time.

These data come from PubChem BioAssay (NCI).
